Values quoted from earlier work as cited in article PMC3298469, “A selective and potent CXCR3 antagonist SCH 546738 attenuates the development of autoimmune diseases and delays graft rejection” (BMC Immunology, 2012).
Where two headings read alike, the source gives them in different places.

Tests used:
[1] = Phase II clinical trials, halted; cited from earlier work
rat = test system: rat; parameters: method as in ref 21 = [21]; Medina J Presented at the 29th National Medicinal Chemistry Symposium (Madison, Wisconsin), June 27-July 1 2004; conditions: rat model of CIA; cited from earlier work
mouse = test system: mouse; parameters: method as in ref 21 = [21]; Medina J Presented at the 29th National Medicinal Chemistry Symposium (Madison, Wisconsin), June 27-July 1 2004; conditions: mouse model of CIA; cited from earlier work
cardiac allograft = conditions: cited from earlier work
EAE = test system: EAE; parameters: method as in PMID 20050195; conditions: by decreasing migration of inflammatory cells into the CNS; cited from earlier work
[2] = parameters: method as in ref 44 = [44]; Medarex Announces Primary Endpoint Achieved in MDX-1100 Anti-IP-10 Antibody Phase 2 Trial for Rheumatoid Arthritis http://www.fiercebiotech.com/press-releases/medarex-announces-primary-endpoint-achiev; conditions: phase 2 clinical trial for RA; cited from earlier work

## CCOc1ccc(-n2c([C@@H](C)N(Cc3cccnc3)C(=O)Cc3ccc(OC(F)(F)F)cc3)nc3ncccc3c2=O)cc1 [AMG487]
[1]
  clinical outcome: lack of efficacy
rat
  effect in CIA: reduced inflammation and cartilage damage
mouse
  effect in CIA: reduced inflammation and cartilage damage

## Cc1ccc(-c2ccc3c(c2)C=C(C(=O)Nc2ccc(C[N+](C)(C)C4CCOCC4)cc2)CCC3)cc1.[Cl-] [TAK-779]
Cardiac allograft
  effect on cardiac allograft vasculopathy: attenuates cardiac allograft vasculopathy
EAE
  effect on EAE: reduce incidence and severity of EAE

## MDX-1100: anti-IP-10 antibody
[2]
  clinical outcome: efficacy
